Experimental data reported in paper PMC8571316 (Scientific Reports, 2021).
Peptide text beside a SMILES is read from it. * marks the point of attachment. Biotin = O=C1N[C@H]2[C@H](CS[C@H]2CCCCC(=O)*)N1; PEG4 = NCCOCCOCCOCCOCCC(=O)O

Experiments:
SARS-CoV-2 S1 protein [1] = target: T1, SARS-CoV-2 S1 protein (Severe acute respiratory syndrome coronavirus 2, UniProt P0DTC2); format: binding
T1 construct: immobilized SARS-CoV-2 S1 protein (His-tag, #S1N-C52H3, Acro Biosystems); His-tag; purchased Acro Biosystems S1N-C52H3

SARS-CoV-2 S1 protein [2] = target: T1, SARS-CoV-2 S1 protein; test: biochemical; format: binding; settings: for kon: read-out: S1 Protein in Binding Buffer ka (1/Ms); for koff: read-out: S1 Protein in Binding Buffer kdis (1/s)

## CC(C)C[C@H](NC(=O)[C@H](CC(=O)O)NC(=O)[C@H](CCC(=O)O)NC(=O)[C@H](Cc1c[nH]c2ccccc12)NC(=O)[C@H](CCC(=O)O)NC(=O)[C@H](CC(C)C)NC(=O)[C@H](CC(N)=O)NC(=O)[C@H](Cc1ccccc1)NC(=O)[C@@H](NC(=O)[C@H](Cc1ccccc1)NC(=O)[C@H](CC(C)C)NC(=O)[C@H](Cc1ccccc1)NC(=O)[C@H](CC(C)C)NC(=O)[C@@H](NC(=O)[C@H](Cc1c[nH]c2ccccc12)NC(=O)[C@H](CC(=O)O)NC(=O)CCOCCOCCOCCOCCNC(=O)CCCC[C@@H]1SC[C@@H]2NC(=O)N[C@@H]21)[C@@H](C)O)C(C)C)C(=O)N[C@@H](Cc1ccccc1)C(=O)N[C@@H](Cc1ccc(O)cc1)C(=O)O [Peptide P89] ({Biotin-PEG4}-DWTLFLFVFNLEWEDLFY-OH; C-terminus assumed)
SARS-CoV-2 S1 protein [1]
  binding to S1 protein in ELISA-like assay (in words): higher binding affinity than the original ACE2 fragment (SBP1)
SARS-CoV-2 S1 protein [2]
  kon: 7800 M⁻¹ s⁻¹
  koff: 0.000969 s⁻¹

## CC[C@H](C)[C@H](NC(=O)[C@H](CCC(=O)O)NC(=O)[C@H](Cc1ccc(O)cc1)NC(=O)[C@H](Cc1ccc(O)cc1)NC(=O)[C@H](CCSC)NC(=O)[C@H](Cc1c[nH]cn1)NC(=O)[C@H](CCSC)NC(=O)[C@H](Cc1c[nH]c2ccccc12)NC(=O)[C@H](CCCCN)NC(=O)[C@H](CC(=O)O)NC(=O)[C@H](Cc1c[nH]c2ccccc12)NC(=O)[C@H](CCC(=O)O)NC(=O)[C@@H](NC(=O)[C@H](CCCCN)NC(=O)CCOCCOCCOCCOCCNC(=O)CCCC[C@@H]1SC[C@@H]2NC(=O)N[C@@H]21)[C@@H](C)O)C(=O)N[C@@H](Cc1ccccc1)C(=O)N[C@@H](Cc1ccc(O)cc1)C(=O)N[C@@H](CCC(=O)O)C(=O)N[C@@H](CC(=O)O)C(=O)O [Peptide P100] ({Biotin-PEG4}-KTEWDKWMHMYYEIFYED-OH; C-terminus assumed)
SARS-CoV-2 S1 protein [1]
  binding to S1 protein in ELISA-like assay (in words): higher binding affinity than the original ACE2 fragment (SBP1)
SARS-CoV-2 S1 protein [2]
  kon: 3930 M⁻¹ s⁻¹
  koff: 0.000728 s⁻¹

## CC[C@H](C)[C@H](NC(=O)[C@H](CC(=O)O)NC(=O)[C@H](Cc1ccccc1)NC(=O)[C@H](CC(N)=O)NC(=O)CCOCCOCCOCCOCCNC(=O)CCCC[C@@H]1SC[C@@H]2NC(=O)N[C@@H]21)C(=O)N[C@@H](CC(C)C)C(=O)N[C@@H](CC(C)C)C(=O)N[C@@H](Cc1ccccc1)C(=O)N[C@H](C(=O)N[C@@H](Cc1ccccc1)C(=O)N[C@@H](CC(N)=O)C(=O)N[C@@H](Cc1ccc(O)cc1)C(=O)N[C@@H](CCC(=O)O)C(=O)N[C@@H](CCSC)C(=O)N[C@@H](CCC(=O)O)C(=O)N[C@@H](CC(=O)O)C(=O)N[C@@H](CCCCN)C(=O)N[C@@H](Cc1ccccc1)C(=O)N[C@@H](Cc1ccc(O)cc1)C(=O)O)C(C)C [Peptide P168] ({Biotin-PEG4}-NFDILLFVFNYEMEDKFY-OH; C-terminus assumed)
SARS-CoV-2 S1 protein [1]
  binding to S1 protein in ELISA-like assay (in words): higher binding affinity than the original ACE2 fragment (SBP1)
SARS-CoV-2 S1 protein [2]
  kon: 7490 M⁻¹ s⁻¹
  koff: 0.00107 s⁻¹

## CC[C@H](C)[C@H](NC(=O)[C@@H](NC(=O)[C@H](Cc1ccc(O)cc1)NC(=O)[C@H](Cc1ccccc1)NC(=O)[C@H](Cc1ccc(O)cc1)NC(=O)[C@@H](NC(=O)[C@H](CCC(=O)O)NC(=O)[C@H](CCSC)NC(=O)[C@H](Cc1c[nH]c2ccccc12)NC(=O)[C@H](Cc1c[nH]cn1)NC(=O)[C@H](CO)NC(=O)[C@H](Cc1ccccc1)NC(=O)[C@H](CCSC)NC(=O)[C@H](CC(=O)O)NC(=O)[C@H](Cc1c[nH]c2ccccc12)NC(=O)[C@H](CC(=O)O)NC(=O)[C@@H](NC(=O)[C@H](CCCCN)NC(=O)CCOCCOCCOCCOCCNC(=O)CCCC[C@@H]1SC[C@@H]2NC(=O)N[C@@H]21)[C@@H](C)O)[C@@H](C)CC)C(C)C)C(=O)O [Peptide P180] ({Biotin-PEG4}-KTDWDMFSHWMEIYFYVI-OH; C-terminus assumed)
SARS-CoV-2 S1 protein [1]
  binding to S1 protein in ELISA-like assay (in words): higher binding affinity than the original ACE2 fragment (SBP1)
SARS-CoV-2 S1 protein [2]
  kon: 3830 M⁻¹ s⁻¹
  koff: 0.000929 s⁻¹
